Data as given in ChEMBL document CHEMBL1132409, “Pharmacological treatment of obesity: therapeutic strategies” (J Med Chem, 1999).

Key:
[1] = biological target: T1, Beta-3 adrenergic receptor (Homo sapiens, UniProt P13945); experiment: Binding affinity towards human Beta-3 adrenergic receptor
Target sequence in this assay (P13945 whole entry): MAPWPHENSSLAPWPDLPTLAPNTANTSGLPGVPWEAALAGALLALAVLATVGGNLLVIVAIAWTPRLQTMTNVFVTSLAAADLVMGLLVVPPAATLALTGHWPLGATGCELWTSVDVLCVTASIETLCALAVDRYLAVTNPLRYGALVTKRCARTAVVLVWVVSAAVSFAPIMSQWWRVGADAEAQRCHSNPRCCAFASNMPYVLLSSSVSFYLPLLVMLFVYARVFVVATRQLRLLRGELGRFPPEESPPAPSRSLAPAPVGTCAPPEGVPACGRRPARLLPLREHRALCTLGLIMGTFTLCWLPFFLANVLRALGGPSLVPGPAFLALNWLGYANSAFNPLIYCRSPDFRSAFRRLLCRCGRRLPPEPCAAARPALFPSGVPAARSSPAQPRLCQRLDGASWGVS

[2] = biological target: T2, Neuropeptide Y receptor type 2 (Rattus norvegicus, UniProt Q9ERC0); experiment: The compound was tested for the binding affinity against Neuropeptide Y receptor type 2
T2 sequence (Q9ERC0 whole entry): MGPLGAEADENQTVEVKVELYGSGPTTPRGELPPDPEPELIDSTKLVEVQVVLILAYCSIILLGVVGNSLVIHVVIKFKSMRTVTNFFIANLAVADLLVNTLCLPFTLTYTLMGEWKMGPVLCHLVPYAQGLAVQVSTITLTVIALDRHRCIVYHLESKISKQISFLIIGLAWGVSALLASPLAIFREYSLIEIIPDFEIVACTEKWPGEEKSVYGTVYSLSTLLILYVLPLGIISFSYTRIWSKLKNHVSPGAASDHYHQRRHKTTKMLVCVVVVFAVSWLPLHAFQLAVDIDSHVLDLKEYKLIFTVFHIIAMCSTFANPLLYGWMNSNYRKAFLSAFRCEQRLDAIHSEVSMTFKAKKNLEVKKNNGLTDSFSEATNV

[3] = biological target: T3, Neuropeptide Y receptor type 1 (Rattus norvegicus, UniProt P21555); experiment: The compound was tested for the binding affinity against NPY1 (Neuropeptide Y receptor type 1)
T3 sequence (P21555 whole entry): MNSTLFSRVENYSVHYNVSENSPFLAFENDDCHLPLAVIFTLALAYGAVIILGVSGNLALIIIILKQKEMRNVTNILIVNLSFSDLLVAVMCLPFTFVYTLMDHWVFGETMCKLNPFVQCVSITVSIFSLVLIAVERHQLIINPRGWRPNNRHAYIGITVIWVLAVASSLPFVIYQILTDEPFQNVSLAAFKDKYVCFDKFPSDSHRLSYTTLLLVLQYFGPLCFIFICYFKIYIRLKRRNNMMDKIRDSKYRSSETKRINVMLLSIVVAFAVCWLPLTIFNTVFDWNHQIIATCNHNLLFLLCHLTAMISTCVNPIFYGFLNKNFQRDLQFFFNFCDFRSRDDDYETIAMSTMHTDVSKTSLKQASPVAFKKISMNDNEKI

[4] = biological target: Neuropeptide Y receptor type 4 (Rattus norvegicus, UniProt Q63447); experiment: The compound was tested for the binding affinity against Neuropeptide Y receptor type 4
Chain of Neuropeptide Y receptor type 4 (Q63447 whole entry): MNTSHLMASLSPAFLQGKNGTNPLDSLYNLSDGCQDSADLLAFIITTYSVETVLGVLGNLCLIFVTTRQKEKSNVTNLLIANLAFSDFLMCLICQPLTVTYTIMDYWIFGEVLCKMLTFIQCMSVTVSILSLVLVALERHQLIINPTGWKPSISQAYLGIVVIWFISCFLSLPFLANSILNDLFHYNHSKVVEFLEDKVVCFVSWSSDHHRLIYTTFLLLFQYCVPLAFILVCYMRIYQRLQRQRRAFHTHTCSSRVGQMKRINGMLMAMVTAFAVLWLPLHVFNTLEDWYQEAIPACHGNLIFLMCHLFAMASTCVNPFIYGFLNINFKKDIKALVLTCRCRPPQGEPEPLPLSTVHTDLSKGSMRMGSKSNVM

[5] = biological target: T4, Neuropeptide Y receptor type 5 (Rattus norvegicus, UniProt Q63634); experiment: The compound was tested for the binding affinity against Neuropeptide Y receptor type 5 in rat
T4 sequence (Q63634 whole entry): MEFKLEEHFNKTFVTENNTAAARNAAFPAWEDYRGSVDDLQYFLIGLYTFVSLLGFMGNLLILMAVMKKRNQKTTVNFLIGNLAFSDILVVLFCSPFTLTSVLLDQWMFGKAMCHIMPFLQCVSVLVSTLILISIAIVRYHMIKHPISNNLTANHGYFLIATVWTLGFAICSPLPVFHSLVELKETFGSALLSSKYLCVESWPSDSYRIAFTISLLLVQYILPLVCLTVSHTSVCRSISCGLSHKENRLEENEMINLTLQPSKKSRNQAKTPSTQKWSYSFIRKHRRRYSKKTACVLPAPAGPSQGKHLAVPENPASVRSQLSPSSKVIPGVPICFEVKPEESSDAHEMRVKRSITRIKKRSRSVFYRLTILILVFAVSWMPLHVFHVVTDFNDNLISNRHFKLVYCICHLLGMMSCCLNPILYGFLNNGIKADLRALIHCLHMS

[6] = Oral bioavailability in rat; format: ADME, organism-based; settings: in vivo
[7] = biological target: T5, Cholecystokinin receptor type A (Mus musculus, UniProt O08786); experiment: Binding affinity in Cholecystokinin type A receptor binding assay […]
T5 sequence (O08786 whole entry): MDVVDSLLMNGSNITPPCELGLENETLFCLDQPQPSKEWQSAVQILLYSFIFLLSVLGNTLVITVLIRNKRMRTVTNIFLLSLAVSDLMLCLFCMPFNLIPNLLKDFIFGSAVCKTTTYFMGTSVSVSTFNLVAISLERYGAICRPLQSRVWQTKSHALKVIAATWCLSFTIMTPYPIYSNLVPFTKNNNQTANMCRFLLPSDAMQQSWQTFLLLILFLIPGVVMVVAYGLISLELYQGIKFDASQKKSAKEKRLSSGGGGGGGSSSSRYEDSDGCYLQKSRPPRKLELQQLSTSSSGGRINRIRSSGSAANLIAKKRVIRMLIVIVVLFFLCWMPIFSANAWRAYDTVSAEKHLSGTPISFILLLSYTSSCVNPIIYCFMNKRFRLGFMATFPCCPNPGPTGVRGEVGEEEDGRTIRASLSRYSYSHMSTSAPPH

[8] = Bioavailability in rat; format: ADME, organism-based; settings: in vivo, read-out: Bioavailabiility
[9] = Bioavailability in dog; format: ADME, organism-based, Canis lupus familiaris; settings: in vivo
[10] = Oral bioavailability of the compound.; format: ADME, organism-based; settings: in vivo
[11] = biological target: T1, Beta-3 adrenergic receptor; experiment: Binding affinity towards Beta-3 adrenergic receptor
Target sequence in this assay (P13945 whole entry): as the sequence (P13945 whole entry) above

[12] = biological target: T1, Beta-3 adrenergic receptor; experiment: Beta-3 adrenergic receptor intrinsic activity relative to isoproterenol
Target sequence in this assay (P13945 whole entry, looked up): as the sequence (P13945 whole entry) above

[13] = Bioavailability in dogs; format: ADME, organism-based, Canis lupus familiaris; settings: dog, in vivo; read-out: Bioavailabiility
[14] = biological target: T6, Neuropeptide Y receptor type 1 (Homo sapiens, UniProt P25929); experiment: The compound was tested for the binding affinity against Neuropeptide Y receptor type 1
T6 sequence (P25929 whole entry): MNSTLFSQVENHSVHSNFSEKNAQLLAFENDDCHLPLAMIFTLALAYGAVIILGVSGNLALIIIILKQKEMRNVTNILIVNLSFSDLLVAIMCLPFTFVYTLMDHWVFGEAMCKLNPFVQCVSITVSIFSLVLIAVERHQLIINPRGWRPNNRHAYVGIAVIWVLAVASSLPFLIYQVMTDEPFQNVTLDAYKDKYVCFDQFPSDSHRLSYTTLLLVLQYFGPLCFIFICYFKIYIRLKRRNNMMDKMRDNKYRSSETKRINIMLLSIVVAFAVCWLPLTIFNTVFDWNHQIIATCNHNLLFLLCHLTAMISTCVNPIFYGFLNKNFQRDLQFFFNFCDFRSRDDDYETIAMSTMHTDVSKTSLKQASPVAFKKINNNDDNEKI

Rhesus monkey [15] = experiment: Effective dose to stimulate lipolysis in Rhesus monkeys (iv); format: functional, Cercopithecidae; settings: Macaca mulatta
Rhesus monkey [16] = experiment: Effective dose to stimulate lipolysis in Rhesus monkeys(iv); format: functional, Cercopithecidae; settings: Macaca mulatta
Rattus norvegicus = experiment: Ability to inhibit the food intake of Sprague-Dawley rats at 30 mg/kg after intraperitoneal administration.; format: functional; settings: ip
[17] = biological target: T3, Neuropeptide Y receptor type 1; experiment: The compound was tested for the binding affinity against Neuropeptide Y receptor type 1 in rat

**Q.** For `CC(C)(Cc1ccc(Oc2ccc(C(N)=O)cn2)cc1)NC[C@H](O)COc1cccc2[nH]c(=O)[nH]c12`, which EC50 [1] is on record?
**A.** 30 nM

**Q.** With `O=C(CN1CCC(n2c(=O)[nH]c3ccccc32)CC1)Nc1ccc2c(c1)-c1ccccc1C2=O` as the molecule, how does the IC50 [2] read?
**A.** > 5000 nM

**Q.** What about the IC50 [3] of the same molecule?
**A.** > 5000 nM

**Q.** What about the IC50 [4] of the same molecule?
**A.** > 5000 nM

**Q.** Which IC50 [5] does the source give for `COc1ccc(-c2cc(NC(=O)CC34CCCC3Cc3ccccc3C4)[nH]n2)cc1OC` (configuration not stated) here?
**A.** 2.3 nM

**Q.** For `COc1ccc(N(C(=O)CN2C(=O)C(Cc3n[nH]c4ccccc34)C(=O)N(c3ccccc3)c3ccccc32)C(C)C)cc1` (configuration not stated), which bioavailability [6] is on record?
**A.** 8%

**Q.** For `COc1ccc(-c2cc(NC(=O)Cc3ccc4ccccc4c3)[nH]n2)cc1OC`, which IC50 [5] is on record?
**A.** 8.3 nM

**Q.** For `CCCCNC(=O)[C@@H]1Cc2ccccc2N1C(=O)CC(N)CC` (some centres not stated), which Ki [7] is on record?
**A.** 7 nM

**Q.** With `CC(C)c1ccc(S(=O)(=O)Nc2ccc(CCNC[C@H](O)COc3ccc(N)nc3)cc2)cc1` as the molecule, how does the bioavailability [8] read?
**A.** 4%

**Q.** What about the F [9] of the same molecule?
**A.** 41%

**Q.** And the bioavailability [9]?
**A.** 47%

**Q.** Which results are given for `Cn1c(C(=O)O)cc2cc(OCCNC[C@H](O)c3ccc(N)nc3)ccc21`?
**A.** bioavailability [8]: < 10%; EC50 [1]: 300 nM

**Q.** With `CS(=O)(=O)Nc1cc([C@@H](O)CN[C@H](Cc2cccc(Cl)c2)c2ccc(OC(F)F)cc2)ccc1O` as the molecule, how does the Ki [1] read?
**A.** 9 nM

**Q.** Which bioavailability [10] does the source give for `CCCCCCNC(=O)Nc1ccc(S(=O)(=O)Nc2ccc(CCNC[C@H](O)COc3ccc(O)cc3)cc2)cc1` [L-755507] here?
**A.** 1%

**Q.** Which IC50 [5] does the source give for `Cc1cc(N2CCCC2)cc(/C=C/c2cccc(C(F)(F)F)c2)n1` here?
**A.** 4.1 nM

**Q.** Which EC50 [11] does the source give for `C[C@H](Cc1ccc(OCP(=O)(O)c2ccccc2)cc1)NC[C@H](O)COc1ccc(O)c(NS(C)(=O)=O)c1` here?
**A.** < 300 nM

**Q.** And the Intrinsic activity [12]?
**A.** > 80%

**Q.** For `O=S(=O)(Nc1ccc(CCNC[C@H](O)c2cccnc2)cc1)c1ccc(I)cc1`, which bioavailability [13] is on record?
**A.** 51%

**Q.** For `CC[C@H]1CC[C@@](c2cccc(OCOC)c2)(N2CCN(c3ccccc3)CC2)CC1`, which IC50 [14] is on record?
**A.** 39 nM

**Q.** With `Nc1ccc(OC[C@@H](O)CNCCc2ccc(NS(=O)(=O)c3ccc(I)cc3)cc2)cn1` as the molecule, how does the ED50 (Rhesus monkey [15]) read?
**A.** 0.8 mg/kg

**Q.** With `CCCCCCP(=O)(O)COc1ccc(C[C@@H](C)NC[C@H](O)COc2ccc(O)c3c2CCC(=O)N3)cc1` as the molecule, how does the EC50 [11] read?
**A.** < 300 nM

**Q.** And the Intrinsic activity [12]?
**A.** > 80%

**Q.** For `O=S(=O)(Nc1ccc(CCNC[C@H](O)COc2cccnc2)cc1)c1ccc(I)cc1` [L-749372], which ED50 (Rhesus monkey [16]) is on record?
**A.** 2 mg/kg

**Q.** What about the bioavailability [9] of the same molecule?
**A.** 47%

**Q.** For `CN(C)CCCNc1nc(NC[C@H]2CC[C@H](CNS(=O)(=O)c3cccc4ccccc34)CC2)nc2ccccc12`, which inhibition in vivo at 30 mg/kg (Rattus norvegicus) is on record?
**A.** 96%

**Q.** With `Clc1ccc(OCc2nc3c(OCCCN4CCCCC4)cccc3n2CCCC2CCCNC2)cc1` (configuration not stated) as the molecule, how does the IC50 [17] read?
**A.** 1.7 nM
